Experimental data taken from ChEMBL document CHEMBL2440076, “New triarylpyrazoles as broad-spectrum anticancer agents: design, synthesis, and biological evaluation” (Eur J Med Chem, 2013).

What was measured:
Malme-3M = assay: Growth inhibition of human MALME-3M cells assessed as cell growth at 10 uM after 48 hrs by sulforhodamine B assay; format: functional; details: read-out: Activity
SNB-19 [1] = assay: Growth inhibition of human SNB19 cells after 48 hrs by sulforhodamine B assay; format: functional; details: SNB-19, 48 h
UO-31 = assay: Growth inhibition of human UO31 cells assessed as cell growth at 10 uM after 48 hrs by sulforhodamine B assay; format: functional; details: UO-31, 48 h, read-out: Activity
LOX IMVI [2] = assay: Growth inhibition of human LOXIMVI cells assessed as cell growth at 10 uM after 48 hrs by sulforhodamine B assay; format: functional; details: read-out: Activity
HL-60(TB) = assay: Growth inhibition of human HL-60(TB) cells after 48 hrs by sulforhodamine B assay; format: functional; details: HL-60, 48 h
786-0 [3] = assay: Growth inhibition of human 786-0 cells after 48 hrs by sulforhodamine B assay; format: functional; details: 786-0, 48 h
OVCAR-8 = assay: Growth inhibition of human OVCAR8 cells assessed as cell growth at 10 uM after 48 hrs by sulforhodamine B assay; format: functional; details: OVCAR-8, 48 h, read-out: Activity
NCI-H460 = assay: Growth inhibition of human NCI-H460 cells assessed as cell growth at 10 uM after 48 hrs by sulforhodamine B assay; format: functional; details: NCI-H460, 48 h, read-out: Activity
SK-OV-3 [4] = assay: Growth inhibition of human SKOV3 cells after 48 hrs by sulforhodamine B assay; format: functional; details: SK-OV-3, 48 h
[5] = Growth inhibition of human HCC2998 cells after 48 hrs by sulforhodamine B assay; format: functional; details: HCC 2998, 48 h
786-0 [6] = assay: Growth inhibition of human 786-0 cells assessed as cell growth at 10 uM after 48 hrs by sulforhodamine B assay; format: functional; details: 786-0, 48 h, read-out: Activity
HT-29 [7] = assay: Growth inhibition of human HT-29 cells assessed as cell growth at 10 uM after 48 hrs by sulforhodamine B assay; format: functional; details: HT-29, 48 h, read-out: Activity
SF-268 = assay: Growth inhibition of human SF268 cells assessed as cell growth at 10 uM after 48 hrs by sulforhodamine B assay; format: functional; details: SF-268, 48 h, read-out: Activity
SK-MEL-28 = assay: Growth inhibition of human SK-MEL-28 cells after 48 hrs by sulforhodamine B assay; format: functional; details: SK-MEL-28, 48 h
HOP-62 = assay: Growth inhibition of human HOP62 cells assessed as cell growth at 10 uM after 48 hrs by sulforhodamine B assay; format: functional; details: HOP-62, 48 h, read-out: Activity
UACC-257 = assay: Growth inhibition of human UACC257 cells after 48 hrs by sulforhodamine B assay; format: functional; details: UACC-257, 48 h
SK-MEL-2 = assay: Growth inhibition of human SK-MEL-2 cells assessed as cell growth at 10 uM after 48 hrs by sulforhodamine B assay; format: functional; details: SK-MEL-2, 48 h, read-out: Activity
COLO 205 = assay: Growth inhibition of human COLO205 cells assessed as cell growth at 10 uM after 48 hrs by sulforhodamine B assay; format: functional; details: COLO 205, 48 h, read-out: Activity
OVCAR-3 = assay: Growth inhibition of human OVCAR3 cells after 48 hrs by sulforhodamine B assay; format: functional, cell-based; details: OVCAR-3, 48 h
HOP-92 = assay: Growth inhibition of human HOP92 cells after 48 hrs by sulforhodamine B assay; format: functional, cell-based; details: HOP-92, 48 h
PC-3 = assay: Growth inhibition of human PC3 cells assessed as cell growth at 10 uM after 48 hrs by sulforhodamine B assay; format: functional; details: PC-3, 48 h, read-out: Activity
ACHN = assay: Growth inhibition of human ACHN cells after 48 hrs by sulforhodamine B assay; format: functional
NCI-H23 [8] = assay: Growth inhibition of human NCI-H23 cells assessed as cell growth at 10 uM after 48 hrs by sulforhodamine B assay; format: functional; details: NCI-H23, 48 h, read-out: Activity
M14 [9] = assay: Growth inhibition of human M14 cells after 48 hrs by sulforhodamine B assay; format: functional; details: M14, 48 h
SK-MEL-5 = assay: Growth inhibition of human SK-MEL-5 cells after 48 hrs by sulforhodamine B assay; format: functional; details: SK-MEL-5, 48 h
HCT-116 = assay: Growth inhibition of human HCT116 cells assessed as cell growth at 10 uM after 48 hrs by sulforhodamine B assay; format: functional; details: HCT-116, 48 h, read-out: Activity
M14 [10] = assay: Growth inhibition of human M14 cells assessed as cell growth at 10 uM after 48 hrs by sulforhodamine B assay; format: functional; details: M14, 48 h, read-out: Activity
SNB-19 [11] = assay: Growth inhibition of human SNB19 cells assessed as cell growth at 10 uM after 48 hrs by sulforhodamine B assay; format: functional; details: SNB-19, 48 h, read-out: Activity
HT-29 [12] = assay: Growth inhibition of human HT-29 cells after 48 hrs by sulforhodamine B assay; format: functional; details: HT-29, 48 h
LOX IMVI [13] = assay: Growth inhibition of human LOXIMVI cells after 48 hrs by sulforhodamine B assay; format: functional
SR = assay: Growth inhibition of human SR cells after 48 hrs by sulforhodamine B assay; format: functional
NCI-H23 [14] = assay: Growth inhibition of human NCI-H23 cells after 48 hrs by sulforhodamine B assay; format: functional; details: NCI-H23, 48 h
SK-OV-3 [15] = assay: Growth inhibition of human SKOV3 cells assessed as cell growth at 10 uM after 48 hrs by sulforhodamine B assay; format: functional; details: SK-OV-3, 48 h, read-out: Activity
UACC-62 = assay: Growth inhibition of human UACC62 cells after 48 hrs by sulforhodamine B assay; format: functional; details: UACC-62, 48 h
[16] = read-out: LC50 (the source's name)

## COc1cc(-c2nn(-c3cccc(NC(=O)Nc4ccc(Cl)c(C(F)(F)F)c4)c3)cc2-c2ccncc2)ccc1Cl
Malme-3M
  growth at 10 µM: -14.9%
SNB-19 [1]
  GI50: 1.24 µM
  LC50 (concentration killing 50% of cells): > 32.5 µM
  TGI: 9.24 µM
UO-31
  growth at 10 µM: 11%
LOX IMVI [2]
  growth at 10 µM: 1.06%
HL-60(TB)
  GI50: 1.17 µM
  TGI: > 32.5 µM
HL-60(TB); [16]
  CC50: > 32.5 µM
786-0 [3]
  GI50: 1.61 µM
  TGI: 8.02 µM
786-0 [3]; [16]
  CC50: > 32.5 µM
OVCAR-8
  growth at 10 µM: -19.9%
NCI-H460
  growth at 10 µM: 1.7%
SK-OV-3 [4]
  GI50: 1.45 µM
  TGI: 13 µM
SK-OV-3 [4]; [16]
  CC50: > 32.5 µM
[5]
  GI50: 1.55 µM
  TGI: 7.3 µM
[5]; [16]
  CC50: > 32.5 µM
786-0 [6]
  growth at 10 µM: 15.1%
HT-29 [7]
  growth at 10 µM: -0.5%
SF-268
  growth at 10 µM: 13.8%
SK-MEL-28
  GI50: 1.2 µM
  LC50: 19.1 µM
  TGI: 5.01 µM
HOP-62
  growth at 10 µM: 5.4%
UACC-257
  GI50: 1.21 µM
  TGI: 6.03 µM
UACC-257; [16]
  CC50: 29.2 µM
SK-MEL-2
  growth at 10 µM: -57.8%
COLO 205
  growth at 10 µM: -91.6%
OVCAR-3
  GI50: 0.889 µM
  IC50: 0.89 µM
  TGI: 2.44 µM
OVCAR-3; [16]
  CC50: > 32.5 µM
HOP-92
  GI50: 0.499 µM
  IC50: 0.5 µM
  LC50: > 32.5 µM
  TGI: 1.48 µM
PC-3
  growth at 10 µM: -19.1%
ACHN
  GI50: 1.1 µM
  TGI: 15.6 µM
ACHN; [16]
  CC50: > 32.5 µM
NCI-H23 [8]
  growth at 10 µM: 5.69%
M14 [9]
  GI50: 1.08 µM
  LC50 (concentration killing 50% of cells): 19.1 µM
  TGI: 3.71 µM
SK-MEL-5
  GI50: 0.818 µM
  LC50 (concentration killing 50% of cells): 10.4 µM
  TGI: 2.89 µM
HCT-116
  growth at 10 µM: 5.3%
M14 [10]
  growth at 10 µM: -11.7%
SNB-19 [11]
  growth at 10 µM: 26.4%
HT-29 [12]
  GI50: 1.19 µM
  TGI: 4.45 µM
HT-29 [12]; [16]
  CC50: 21.5 µM
LOX IMVI [13]
  GI50: 1.17 µM
  LC50: 17.9 µM
  TGI: 4.61 µM
SR
  GI50: 0.884 µM
  TGI: 2.48 µM
SR; [16]
  CC50: > 32.5 µM
NCI-H23 [14]
  GI50: 1.31 µM
  LC50: > 32.5 µM
  TGI: 8.03 µM
SK-OV-3 [15]
  growth at 10 µM: 0.43%
UACC-62
  GI50: 0.737 µM
  LC50 (50% lethal concentration): 11.6 µM
  TGI: 2.09 µM
